Laboratory results as given in patent US20110251286A1, “Crystalline salts and/or co-crystals of O-desmethyltramadol” (GRUENENTHAL GmbH, priority 2010, published 2011).

Assays:
[1] = Release in artificial intestinal juice; assay type: physicochemical; settings: permeable bag, amount calculated on 100 mg free base
Procedure: Investigations on release were carried out in a Sotax AT7 smart release apparatus with UV measurement (Perkin Elmer photometer).
A vessel with Wood apparatus was used (for intrinsic release).
A pressing of 0.5 cm^2 surface area (diameter 8 mm) was produced with a force of 200 N using approximately 100 mg of active ingredient.
Release was carried out in a release medium, which is composed as described below: • Intestinal juice without pancreas powder, pH 6.8 (analogous to Ph. Eur.); 250.0 ml 6.8 g of potassium dihydrogenphosphate R+0.896 g of NaOH+water to 1000.0 ml.
Release was carried out in a release volume of in each case 500±5 ml at a temperature of the release medium of 37±1° C. with a stirring speed of 100±5 rpm.
The content determination was carried out by means of spectroscopic methods (UV spectroscopy, wavelength: 271 nm, cuvette: 10 mm). Sample taking was carried out manually.
In this release experiment, the individual compounds were placed in a permeable bag in an amount in each case calculated on 100 mg of the free base.
The results, expressed in percent of the substance released, are reproduced in the following tables. In this case, the compounds denote: HCl: hydrochloride; A: cinnamate; B: palmitate; C: decanoate; E: hemi-fumarate and F: hemi-sebacate.

[2] = Dynamic vapor sorption (DVS): sorption and desorption of moisture; assay type: physicochemical
Procedure: Investigations on the sorption and desorption of moisture (dynamic vapor sorption, DVS): DVS measurements were carried out on an apparatus of the type DVS 1000 from Porotec. The evaluation of the measurements was carried out using software from Surface Measurement Systems. At a temperature between 23° C. and 26° C., starting from a relative humidity of 50%, within 240 minutes the relative humidity first increased to 90% and then fell to 0%. This cycle was repeated a second time. The DVS charts shown are isothermal recordings (plots) of the change in the mass in % (change in mass—dry) as a function of the desired relative humidity in % (target RH). Correspondingly, the axes of the graphs are marked by ΔM [%] and RH [%]. The measurement curves of the first sorption are designated by 1-S, the subsequent first desorption by 1-D, the second sorption by 2-S and the second desorption by 2-D. Advantageously, mass changes between the sorption and desorption phase are as low as possible.

Structure (SMILES): CN(C)CC1CCCCC1(O)c1cccc(O)c1.O=C(O)C=Cc1ccccc1 (stereo not shown) [A-1]
- Release in artificial intestinal juice, percent of the substance released ([1]; t 2 min): 58.49%
- Release in artificial intestinal juice, percent of the substance released ([1]; t 4 min): 74.11%
- Release in artificial intestinal juice, percent of the substance released ([1]; t 6 min): 84.48%
- Release in artificial intestinal juice, percent of the substance released ([1]; t 8 min): 91.49%
- Release in artificial intestinal juice, percent of the substance released ([1]; t 10 min): 92.24%
- Release in artificial intestinal juice, percent of the substance released ([1]; t 12 min): 96.63%
- Release in artificial intestinal juice, percent of the substance released ([1]; t 15 min): 97.34%
- Release in artificial intestinal juice, percent of the substance released ([1]; t 30 min): 102.44%

Structure (SMILES): CN(C)CC1CCCCC1(O)c1cccc(O)c1.O=C(O)C=Cc1ccccc1 (stereo not shown) [A-2]
- Release in artificial intestinal juice, percent of the substance released ([1]; t 2 min): 53.05%
- Release in artificial intestinal juice, percent of the substance released ([1]; t 4 min): 76.86%
- Release in artificial intestinal juice, percent of the substance released ([1]; t 6 min): 86.98%
- Release in artificial intestinal juice, percent of the substance released ([1]; t 8 min): 96.27%
- Release in artificial intestinal juice, percent of the substance released ([1]; t 10 min): 94.24%
- Release in artificial intestinal juice, percent of the substance released ([1]; t 12 min): 95.42%
- Release in artificial intestinal juice, percent of the substance released ([1]; t 15 min): 98.53%
- Release in artificial intestinal juice, percent of the substance released ([1]; t 30 min): 98.80%

Structure (SMILES): CCCCCCCCCCCCCCCC(=O)O.CN(C)CC1CCCCC1(O)c1cccc(O)c1 [B-1]
- Release in artificial intestinal juice, percent of the substance released ([1]; t 2 min): 17.63%
- Release in artificial intestinal juice, percent of the substance released ([1]; t 4 min): 31.60%
- Release in artificial intestinal juice, percent of the substance released ([1]; t 6 min): 55.36%
- Release in artificial intestinal juice, percent of the substance released ([1]; t 8 min): 53.71%
- Release in artificial intestinal juice, percent of the substance released ([1]; t 10 min): 67.26%
- Release in artificial intestinal juice, percent of the substance released ([1]; t 12 min): 69.49%
- Release in artificial intestinal juice, percent of the substance released ([1]; t 15 min): 76.13%
- Release in artificial intestinal juice, percent of the substance released ([1]; t 30 min): 95.50%

Structure (SMILES): CCCCCCCCCC(=O)O.CN(C)CC1CCCCC1(O)c1cccc(O)c1 (stereo not shown) [C-1]
- Release in artificial intestinal juice, percent of the substance released ([1]; t 2 min): 79.57%
- Release in artificial intestinal juice, percent of the substance released ([1]; t 4 min): 93.67%
- Release in artificial intestinal juice, percent of the substance released ([1]; t 6 min): 99.13%
- Release in artificial intestinal juice, percent of the substance released ([1]; t 8 min): 99.87%
- Release in artificial intestinal juice, percent of the substance released ([1]; t 10 min): 99.63%
- Release in artificial intestinal juice, percent of the substance released ([1]; t 12 min): 99.80%
- Release in artificial intestinal juice, percent of the substance released ([1]; t 15 min): 99.92%
- Release in artificial intestinal juice, percent of the substance released ([1]; t 30 min): 100.27%

Structure (SMILES): CCCCCCCCCC(=O)O.CN(C)CC1CCCCC1(O)c1cccc(O)c1 (stereo not shown) [C-2]
- Release in artificial intestinal juice, percent of the substance released ([1]; t 2 min): 92.62%
- Release in artificial intestinal juice, percent of the substance released ([1]; t 4 min): 99.12%
- Release in artificial intestinal juice, percent of the substance released ([1]; t 6 min): 99.74%
- Release in artificial intestinal juice, percent of the substance released ([1]; t 8 min): 99.73%
- Release in artificial intestinal juice, percent of the substance released ([1]; t 10 min): 99.55%
- Release in artificial intestinal juice, percent of the substance released ([1]; t 12 min): 99.73%
- Release in artificial intestinal juice, percent of the substance released ([1]; t 15 min): 99.56%
- Release in artificial intestinal juice, percent of the substance released ([1]; t 30 min): 99.77%

Structure (SMILES): CN(C)CC1CCCCC1(O)c1cccc(O)c1.CN(C)CC1CCCCC1(O)c1cccc(O)c1.O=C(O)C=CC(=O)O (stereo not shown) [E-1]
- Release in artificial intestinal juice, percent of the substance released ([1]; t 2 min): 99.32%
- Release in artificial intestinal juice, percent of the substance released ([1]; t 4 min): 100.25%
- Release in artificial intestinal juice, percent of the substance released ([1]; t 6 min): 99.24%
- Release in artificial intestinal juice, percent of the substance released ([1]; t 8 min): 99.47%
- Release in artificial intestinal juice, percent of the substance released ([1]; t 10 min): 100.58%
- Release in artificial intestinal juice, percent of the substance released ([1]; t 12 min): 99.42%
- Release in artificial intestinal juice, percent of the substance released ([1]; t 15 min): 98.40%
- Release in artificial intestinal juice, percent of the substance released ([1]; t 30 min): 100.24%

Structure (SMILES): CN(C)CC1CCCCC1(O)c1cccc(O)c1.CN(C)CC1CCCCC1(O)c1cccc(O)c1.O=C(O)C=CC(=O)O (stereo not shown) [E-2]
- Release in artificial intestinal juice, percent of the substance released ([1]; t 2 min): 95.38%
- Release in artificial intestinal juice, percent of the substance released ([1]; t 4 min): 96.67%
- Release in artificial intestinal juice, percent of the substance released ([1]; t 6 min): 95.80%
- Release in artificial intestinal juice, percent of the substance released ([1]; t 8 min): 96.46%
- Release in artificial intestinal juice, percent of the substance released ([1]; t 10 min): 96.47%
- Release in artificial intestinal juice, percent of the substance released ([1]; t 12 min): 96.45%
- Release in artificial intestinal juice, percent of the substance released ([1]; t 15 min): 96.19%
- Release in artificial intestinal juice, percent of the substance released ([1]; t 30 min): 96.42%

Structure (SMILES): CN(C)C[C@H]1CCCC[C@]1(O)c1cccc(O)c1 [free base, (+)-(1R,2R)-3-[2-(dimethylamino)methyl-1-hydroxycyclohexyl]phenol]
- ΔM Desorption ([2]; 1st cycle, RH 0.0 %): 0.00000%
- ΔM Desorption ([2]; 1st cycle, RH 10.0 %): 0.00395%
- ΔM Desorption ([2]; 1st cycle, RH 20.0 %): 0.00526%
- ΔM Desorption ([2]; 1st cycle, RH 30.0 %): 0.00526%
- ΔM Desorption ([2]; 1st cycle, RH 40.0 %): 0.00636%
- ΔM Desorption ([2]; 1st cycle, RH 50.0 %): 0.00614%
- ΔM Hysteresis ([2]; 1st cycle, RH 50.0 %): −0.00241%
- ΔM Sorption ([2]; 1st cycle, RH 50.0 %): 0.00855%
- ΔM Desorption ([2]; 1st cycle, RH 60.0 %): 0.00526%
- ΔM Hysteresis ([2]; 1st cycle, RH 60.0 %): −0.00219%
- ΔM Sorption ([2]; 1st cycle, RH 60.0 %): 0.00746%
- ΔM Desorption ([2]; 1st cycle, RH 70.0 %): 0.00395%
- ΔM Hysteresis ([2]; 1st cycle, RH 70.0 %): 0.00219%
- ΔM Sorption ([2]; 1st cycle, RH 70.0 %): 0.00175%
- ΔM Desorption ([2]; 1st cycle, RH 80.0 %): 0.00132%
- ΔM Hysteresis ([2]; 1st cycle, RH 80.0 %): 0.00592%
- ΔM Sorption ([2]; 1st cycle, RH 80.0 %): −0.00461%
- ΔM Desorption ([2]; 1st cycle, RH 90.0 %): −0.01097%
- ΔM Sorption ([2]; 1st cycle, RH 90.0 %): −0.01097%
- ΔM Desorption ([2]; 2nd cycle, RH 0.0 %): −0.00461%
- ΔM Sorption ([2]; 2nd cycle, RH 0.0 %): 0.00000%
- ΔM Desorption ([2]; 2nd cycle, RH 10.0 %): −0.00132%
- ΔM Hysteresis ([2]; 2nd cycle, RH 10.0 %): −0.00329%
- ΔM Sorption ([2]; 2nd cycle, RH 10.0 %): 0.00197%
- ΔM Desorption ([2]; 2nd cycle, RH 20.0 %): 0.00044%
- ΔM Hysteresis ([2]; 2nd cycle, RH 20.0 %): −0.00351%
- ΔM Sorption ([2]; 2nd cycle, RH 20.0 %): 0.00395%
- ΔM Desorption ([2]; 2nd cycle, RH 30.0 %): 0.00132%
- ΔM Hysteresis ([2]; 2nd cycle, RH 30.0 %): −0.00395%
- ΔM Sorption ([2]; 2nd cycle, RH 30.0 %): 0.00526%
- ΔM Desorption ([2]; 2nd cycle, RH 40.0 %): 0.00307%
- ΔM Hysteresis ([2]; 2nd cycle, RH 40.0 %): −0.00395%
- ΔM Sorption ([2]; 2nd cycle, RH 40.0 %): 0.00702%
- ΔM Desorption ([2]; 2nd cycle, RH 50.0 %): 0.00395%
- ΔM Hysteresis ([2]; 2nd cycle, RH 50.0 %): −0.00592%
- ΔM Sorption ([2]; 2nd cycle, RH 50.0 %): 0.00987%
- ΔM Desorption ([2]; 2nd cycle, RH 60.0 %): 0.00395%
- ΔM Hysteresis ([2]; 2nd cycle, RH 60.0 %): −0.00724%
- ΔM Sorption ([2]; 2nd cycle, RH 60.0 %): 0.01119%
- ΔM Desorption ([2]; 2nd cycle, RH 70.0 %): 0.00329%
- ΔM Hysteresis ([2]; 2nd cycle, RH 70.0 %): −0.00417%
- ΔM Sorption ([2]; 2nd cycle, RH 70.0 %): 0.00746%
- ΔM Desorption ([2]; 2nd cycle, RH 80.0 %): 0.00132%
- ΔM Hysteresis ([2]; 2nd cycle, RH 80.0 %): 0.00197%
- ΔM Sorption ([2]; 2nd cycle, RH 80.0 %): −0.00066%
- ΔM Desorption ([2]; 2nd cycle, RH 90.0 %): −0.01031%
- ΔM Sorption ([2]; 2nd cycle, RH 90.0 %): −0.01031%
- ΔM Sorption ([2]; 3rd cycle, RH 0.0 %): −0.00461%
- ΔM Sorption ([2]; 3rd cycle, RH 10.0 %): −0.0011%
- ΔM Sorption ([2]; 3rd cycle, RH 20.0 %): 0.00066%
- ΔM Sorption ([2]; 3rd cycle, RH 30.0 %): 0.00197%
- ΔM Sorption ([2]; 3rd cycle, RH 40.0 %): 0.00461%
- ΔM Sorption ([2]; 3rd cycle, RH 50.0 %): 0.00768%
